Reference: ChEMBL document CHEMBL4033758, “Systematic Data Mining Reveals Synergistic H3R/MCHR1 Ligands” (ACS Med Chem Lett, 2017)

These compounds were tested against Histamine H3 receptor (Homo sapiens, UniProt Q9Y5N1) (assay: Displacement of [3H]-N-alpha-methylhistamine from human H3R expressed in HEK293 cell membranes after 90 mins by liquid scintillation counting analysis).
Chain of Histamine H3 receptor (Q9Y5N1 whole entry): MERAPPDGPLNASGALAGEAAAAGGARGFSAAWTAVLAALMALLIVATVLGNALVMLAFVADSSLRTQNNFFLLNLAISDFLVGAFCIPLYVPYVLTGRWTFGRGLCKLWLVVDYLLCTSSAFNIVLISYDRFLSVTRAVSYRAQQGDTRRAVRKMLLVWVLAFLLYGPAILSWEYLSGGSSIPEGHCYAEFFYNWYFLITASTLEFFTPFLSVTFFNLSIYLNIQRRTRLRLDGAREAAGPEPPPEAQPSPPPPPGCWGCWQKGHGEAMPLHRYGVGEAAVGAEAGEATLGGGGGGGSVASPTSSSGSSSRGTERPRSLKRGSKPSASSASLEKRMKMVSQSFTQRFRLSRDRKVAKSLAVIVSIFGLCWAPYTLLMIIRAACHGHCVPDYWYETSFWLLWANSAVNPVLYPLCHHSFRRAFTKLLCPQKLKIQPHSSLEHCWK
Work on `CCN1CCN(c2cc(C)c3cc(NC(=O)/C=C/c4ccc(OC)cc4)ccc3n2)CC1` yielded a Ki of 10.6 nM.
For `COc1cc(-n2cnc3cc(-c4ccc(Cl)cc4)sc3c2=O)ccc1OCCN1CCCC1`, the Ki was 208 nM.
`O=c1cc(OCc2ccc(F)cc2)ccn1-c1ccc(OCCN2CCCC2)cc1` gave a Ki of 517 nM.
